Test results: US12527977B2, “Combined neuromodulation techniques” (GE Precision Healthcare LLC, priority 2021, dated 2026)

Experiments:
[1] = system: Zucker diabetic fatty (ZDF) rat model; conditions: previously shown treatment, cited from earlier work
[2] = system: Zucker diabetic fatty (ZDF) rat model; assay: Chronic non-fasted blood glucose monitoring in ZDF rats, drug combined with pFUS ultrasound stimulation; assay type: in vivo
Source text: The following relates to the diabetic animal model used and the method of ultrasound neuromodulation. • Animal Model of Type 2 Diabetes • Zucker diabetic fatty (ZDF) rat model Adult male ZDF rats (Charles River, Kingston, NY USA) were ordered for arrival prior to 8 weeks of age. All animals were maintained on a high caloric rodent chow (Purina 5008), provided, with water, provided ad libitum. […] All procedures performed in accordance with the National Institutes of Health (NIH) Guidelines under protocols approved by the Institutional Animal Care and Use Committee (IACUC) of GE Global Research. ZDF animals were acclimated by daily handling to prevent stress-induced changes in circulating glucose. […] All rats were anesthetized at 1-4% isoflurane at 1 L/min O2. Rats were then placed on a water circulating warming pad, with a rectal thermometer probe to maintain body temperature. The abdominal area was completely shaved and the hair fully removed with Nair to allow for later stimulation of nerve plexus located in either the hepatic or GI systems. […] These locations were then marked with a permanent marker and a ultrasound stimulation probe was placed on the target area. The prototype pFUS device then delivered 3 minutes of stimulation (1.1 MHz, 150 burst cycles, 500 us burst period) Blood glucose levels of the rats were monitored on a daily basis for chronic studies and at 5-minute intervals for acute and OGTT studies. In chronic studies additional blood samples were collected on a weekly basis for the analysis of circulating markers. A final terminal blood sample was collected at the time of euthanization and used for the evaluation of circulating insulin levels. For the prototype pFUS device, stimulus (1.1 MHZ, 200 mV per pulse, 150 burst cycles, 500 us burst period) was applied to each region for 3 minutes per target. For example, pFUS was initially applied to the hepatic portal region for 3 minutes. […] There was an about 5 minute delay period in between stimulation of the first and second, or second and third anatomical target sites. Blood samples obtained from the tail vein were used to assess daily glucose (for chronic studies) and 5-minute glucose intervals (for acute studies) using a Freestyle Freedom Lite (Abbott Diabetes Inc., Alameda, CA, US). The Freestyle Freedom Light meter using a small blood 15 volume (0.3 uL) and as such no additional fluids were needed to recover total volume following blood sampling. Combination of pharmaceutical intervention and pFUS therapy was tested to determine the effects of dual therapies on therapeutic window as well as duration of efficacy. […] This dosing regimen (timing) is identical to that used in humans with dosing to occur prior to both morning and evening mealtimes. […]

[3] = low dose metformin alone cohort, FIG. 9 data 304

Molecule: FGF1: FGF1 injected into the intracerebroventricular space; previously reported treatment
- effect in ZDF animals far along in disease progression ([1]; FGF1 icv, animals with >300 mg/dL average glucose): failed to work
- remission in the ZDF model ([1]; FGF1 injection into the intracerebroventricular (icv) space): 4 week

Molecule: CN(C)C(=N)N=C(N)N [Metformin]
- remission after ultrasound cessation ([2]; low dose metformin added to dual-site stimulation (7 days ultrasound, then stopped), FIG. 9 data 302): did not result in extended remission
- blood glucose [2, 3]: temporary drop below 200 mg/dL
- effectiveness (absolute decrease in blood glucose or length of time spent below 200 mg/dL) versus liraglutide alone [2, 3]: not as effective as the liraglutide alone cohort
- blood glucose reduction duration versus single site plus liraglutide cohort ([2]; low dose metformin plus single site (hepatoportal plexus) stimulus, FIG. 9 data 306): not as effective
